Bridge positions count the residues as written; N and C are the ends. Peptide text beside a SMILES is read from it.
Assays:
[1] = test system: human EDTA-anti-coagulated blood diluted 1∶10; test: TNF release assay in stimulated diluted whole blood (ELISA); format: cell-based

`CC[C@H](C)[C@@H]1NC(=O)[C@@H]2CSSC[C@H](NC(=O)[C@H](CCCNC(=N)N)NC(=O)[C@@H]3CSSC[C@H](NC1=O)C(=O)N[C@@H]([C@@H](C)O)C(=O)N[C@@H](CCCNC(=N)N)C(=O)NCC(=O)N[C@@H](Cc1ccccc1)C(=O)N3)C(=O)N[C@@H](CC(C)C)C(=O)N[C@H]1CSSC[C@H](NC(=O)[C@H](C(C)C)NC(=O)CNC(=O)[C@H](CCCNC(=N)N)NC(=O)[C@H](CCCNC(=N)N)NC1=O)C(=O)N[C@@H](CCCNC(=N)N)C(=O)N2` [RTD-1] (cyclo(GFCRCLCRRGVCRCICTR); disulfide 3-16, 5-14, 7-12) was tested, and the “clinical and injection site effects” value (adult chimpanzees; escalating i.v. doses (0.2 to 3.0 mg/kg over 14 days), two animals) was “No clinical or injection site effects were observed”, the “comprehensive metabolic panels and complete blood counts with differential” value (adult chimpanzees; escalating i.v. doses, all time points incl. days 21, 28, 60) was “no abnormalities” and the “anti-RTD-1 antibody (dot blot immunoassay)” value (adult chimpanzees; serum samples after escalating i.v. doses, two animals) was “No anti-RTD-1 antibody was detected”. The TNF-release inhibition [1] was 70–80% and the “reduction of TNF levels” value [1] was 46–93%.
